In patent US20030207843A1, “Treatment of drug-resistant human immunodeficiency virus infection” (priority 1999, published 2003):
Where “and” joins values, the source holds several entries; their conditions need not be identical. Equal values may be shown once.

Key:
Assay type in all cases: cell-based
[1] = test system: HIV-1LAI selected with PFA, passage 17 (W88G); experiment: Susceptibility of virus selected in vitro with PFA, passage 17
Procedure: (§1) Antiviral Susceptibility Assays. The antiviral activity of each compound was determined by inoculating MT-2 cells with HIV-1LAI at a multiplicity of infection (MOI) of 0.01 TCID50/cell, followed by incubation in the presence of three-fold serial drug dilutions (3 wells per dilution) (see Mellors, et. al., Antimicrob. Agents Chemother. 39:1087-1092). Five or seven days after infection, culture supernatants were harvested, lysed with 0.5% triton-X 100 and assayed for p24 antigen concentration using a commercial ELISA assay (DuPont, NEN Products, Wilmington, Del.). The antiviral activity of the compounds is expressed as the IC50, which is the concentration required to inhibit 50% of p24 antigen production. The fold-resistance of a test virus is calculated by dividing the IC50 of the test virus by the IC50 of the HIV-1LAI control virus.
(§2) Selection of Resistant Viruses. […] Viral cytopathic effects (CPE) were monitored daily. […] The passaged virus was monitored regularly for a reduction in susceptibility to the compounds by determining the EC50 relative to unpassaged HIV-1LAI (Mellors, et. al., Antimicrob. Agents Chemother. 39:1087-1092). […]
(§3) As controls for the invention compound selections, HIV-1LAI was passaged in the presence and absence of unmodified PFA. […] None of the mutations selected by the invention compounds or free PFA were detected in control viruses passaged in the absence of drug.

[2] = test system: HIV-1LAI selected with PFA, passage 15 (S117T); experiment: Susceptibility of virus selected in vitro with PFA, passage 15
Procedure: as §1, §2, §3

[3] = test system: panel of drug resistant HIV-1 viruses; experiment: p24 reduction assay, panel of drug resistant HIV-1 viruses (summary); settings: Human immunodeficiency virus 1, read-out: EC50 values (range over strains)
Procedure: The μM concentration required to produce 50% inhibition of replication of the drug-resistant strain of HIV (EC50) was determined as shown in Table 1. Drug effects were measured by assaying p24 (a viral protein) in the culture medium.

[4] = test system: HIV-1LAI selected with EB-PFA, passage 15 (W88G, L214F); experiment: Susceptibility of virus selected in vitro with EB-PFA
Procedure: as §1, §2

[5] = Table 6, passage 15, relative to passage 0

Row | Structure (SMILES) | EC50 ([1]; Human immunodeficiency virus 1, Table 6, passage 17 (W88G)) | Fold resist. ([1]; Table 6, passage 17, relative to passage 0) | EC50 ([2]; Human immunodeficiency virus 1, Table 6, passage 15 (S117T)) | Fold resist. [2, 5] | EC50 [3] | EC50 ([4]; Table 6, passage 15 (W88G, L214F)) | Fold resist. [4, 5]
1 | O=C(O)P(=O)(O)O [PFA, phosphonoformate, reference compound] | 122 µM | 23 and 23.2 | 122 µM | 23 and 23.2 | 7.6 to 37.4 µM |  | 
2 | CCCCCCCCCCCCCCCCCCOC[C@H](COP(=O)(O)C(=O)O)OCC [EB-PFA, 1-O-octadecyl-2-O-ethyl-sn-glycero-3-PFA] |  |  |  |  |  | 3.7 µM | 41 and 41.1
